{"source": "patent US6417160B1", "about": "“Methods for increasing schwann cell survival” (priority 1997, dated 2002)", "key": {"PD2 Schwann cells": {"test_system": "PD2 Schwann cells", "assay": "Mitochondrial membrane potential (ΔΨM) by CMTMR confocal imaging", "assay_type": "cell-based, rat", "settings": "40 mM glucose, DMD 10^−9 M; for distribution frequencies of ΔΨM (CMTMR intensity): 6 h, CsA 10^−7, ATR 1 mM; for CMTMR fluorescent intensity (confocal images): 6 hr, CsA 10^−7 M, ATR 1 mM", "source_text": "As has been previously reported in a number of models of apoptosis, apoptotic cell death is often preceded by a fall in mitochondrial membrane potential (ΔΨM). […] This dye is preferentially taken up by actively respiring mitochondria where it binds to protein thiol groups within the mitochondrial matrix and is retained following aldehyde fixation. The CMTMR fluorescence intensity therefore represents the highest level of negativity difference (i.e., the greatest ΔΨM) in the mitochondria during the period of dye exposure prior to fixation.\nA Leica true confocal scanning (TCS) microscope was used to image the cells. A pinhole aperture of 20 is maintained with constant laser and photo-detector power settings and an excitation filter wavelength of 488 nm and a band-pass emission filter of 600/30 nm. Each image was scanned using an oil-immersion, 100×, 1.4 N.A. objective at 512 by 512 by 8 bits per pixel resolution, background offset of −1 and line averaged 32 times. The confocal images were saved as grey-scale tagged image file format (TIFF) files for analysis and recolourization. The Metamorph™ (Universal Imaging, Ltd.) image capture and analysis system for Windows was used to measure the intensity of CMTMR fluorescence in individual mitochondria. In each mitochondrion, no fewer than two regions were defined by a box measuring 9 pixels square each. The average intensity per pixel within each defined region is measured and automatically logged to a Microsoft Excel spreadsheet for analysis.\nAt the end of the indicated time point, Schwann cells so treated were incubated with CMTMR to estimate ΔΨM, fixed with 4% paraformaldehyde, and processed for the immunocytochemical co-localization of hexokinase (Type 1) to mitochondria. The fixed coverslips were blocked for 1 hr with 10% normal donkey serum to minimize non-specific binding, and incubated with a mouse monoclonal antibody raised against hexokinase (Type 1; Chemicon) at a dilution of 1:500 overnight at 4° C. Coverslips were washed in PBS and incubated with a Cy5 conjugated donkey anti-mouse (Jackson Immuno Research) at a dilution of 1:250 for 1 hr at room temperature. Coverslips were then washed with PBS and mounted with Aquamount (BDH)."}, "Schwann cells": {"test_system": "Schwann cells", "assay": "NO production by Griess reaction (secreted nitrite in culture medium)", "assay_type": "cell-based, rat", "settings": "for NO2 production: Schwann cells exposed to 40 mM glucose, 24 hr, DMD 10^−9 M, L-NIL 10^−4 M", "experimental": "To determine the role of NO signaling in high glucose induced Schwann cell apoptosis, PD2 and PD15 Schwann cells were cultured, as described, in the presence of 5.5 or 40 mM glucose for 24 hr. Cells exposed to 40 mM glucose were also treated with DMD (10^−9 M), the NOS inhibitor L-NIL (10^−4 M) or an inhibitor of the constitutive, Ca^++-dependent isoform of NOS (cNOS), S-methyl-thiocitruline (SMTC, 10^−4 M). […] PD2 Schwann cells were also treated with increasing amounts of TNF-α […] plus IFN-γ (50, 100, 250, and 500U) for 24 hr to establish a dose-response threshold for the assay.\nThe Griess reaction, which measures secreted nitrite (NO2) in the culture medium, was used to investigate NO production by Schwann cells."}, "[1]": {"assay": "Cell rescue with P450 inhibitor Proadifen (animal and cell-culture studies)", "settings": "P450 inhibitor Proadifen co-administered"}, "[2]": {"test_system": "PD2 (non-proliferating) and PD15 (proliferating) Schwann cells", "assay": "Schwann cell survival in high glucose media (counts of intact nuclei)", "assay_type": "cell-based, rat", "settings": "IGF-1 1 ng/ml, NAC 10^−7 M, DMD 10^−9 M; for Schwann cell survival: 24 hr of high glucose exposure (40 mM); for number of cells (intact nuclei relative to 5.5 mM glucose control): 40 mM glucose, 2 hr"}, "PC12 cells": {"test_system": "PC12 cells", "settings": "cited from earlier work"}, "[3]": {"assay": "Hepatic metabolism after oral administration"}, "[4]": {"test_system": "cultured cerebellar granule cells", "settings": "cited from earlier work"}, "[5]": {"assay": "Stability of deprenyl versus pH of the medium", "settings": "pH about 3-5 versus pH about 7"}, "[6]": {"test_system": "neuronal and non-neuronal cells", "settings": "several systems; cited from earlier work"}}, "data": [{"compound": "C#CCNC(C)Cc1ccccc1", "note": "(single isomer, unassigned; (-)) [DMD, (−)-desmethyldeprenyl]", "values": [{"measurement": "distribution frequencies of ΔΨM (CMTMR intensity)", "setting": "PD2 Schwann cells", "result": "restored ΔΨM distributions comparable with the base media"}, {"measurement": "CMTMR fluorescent intensity (confocal images)", "setting": "PD2 Schwann cells", "result": "comparable levels of CMTMR fluorescent intensity compared with cells in base media"}, {"measurement": "NO2 production", "setting": "Schwann cells", "result": "slight decrease"}, {"measurement": "cell-rescuing activity on administration of Proadifen", "setting": "[1]", "result": "does not block the cell-rescuing activity"}, {"measurement": "Schwann cell survival", "setting": "[2]", "result": "significantly improve Schwann cell survival"}, {"measurement": "number of cells (intact nuclei relative to 5.5 mM glucose control)", "setting": "[2]; non-proliferating cells", "result": "significant increase"}, {"measurement": "number of cells (intact nuclei relative to 5.5 mM glucose control)", "setting": "[2]; proliferating cells", "result": "significant increase"}]}, {"compound": "C#CCN(C)[C@H](C)Cc1ccccc1", "note": "[(−)-deprenyl, R-(−)-N,α-Dimethyl-N-2-propynyl phenethylamine]", "values": [{"measurement": "trophic withdrawal induced drop in ΔΨM", "setting": "PC12 cells", "result": "prevent"}, {"measurement": "metabolites formed by the liver", "setting": "[3]", "result": "(−)-desmethyldeprenyl, as well as (−)-methamphetamine and (−)-amphetamine"}, {"measurement": "cell-rescuing activity on administration of Proadifen", "setting": "[1]", "result": "reduces the ability of (−)-deprenyl to prevent cell death"}, {"measurement": "AraC induced drop in ΔΨM", "setting": "[4]", "result": "prevent"}, {"measurement": "stability", "setting": "[5]", "result": "more stable at a pH in the range of about 3-5 than at a pH of about 7"}, {"measurement": "apoptotic death of neuronal and non-neuronal cells", "setting": "[6]", "result": "reduce the apoptotic death"}]}, {"compound": "C=C1[C@@H]2CC[C@H]3[C@]4(C)C[C@H](O[C@@H]5O[C@H](CO)[C@@H](OS(=O)(=O)O)[C@H](OS(=O)(=O)O)[C@H]5OC(=O)CC(C)C)C[C@@H](C(=O)O)[C@H]4CC[C@]3(C2)[C@H]1O", "note": "[ATR, atractyloside]", "values": [{"measurement": "distribution frequencies of ΔΨM (CMTMR intensity)", "setting": "PD2 Schwann cells", "result": "pronounced shift to the left"}, {"measurement": "CMTMR fluorescent intensity (confocal images)", "setting": "PD2 Schwann cells", "result": "decreased CMTMR brightness"}]}, {"compound": "CC(=N)NCCCC[C@H](N)C(=O)O", "note": "[L-NIL]", "values": [{"measurement": "stimulation of NO2 release by TNF-α/IFN-γ", "setting": "Schwann cells; L-NIL added", "result": "prevented"}, {"measurement": "NO2 production", "setting": "Schwann cells", "result": "slight decrease"}]}, {"compound": "CC(=O)N[C@@H](CS)C(=O)O", "note": "[NAC, N-acetyl-L-cysteine]", "values": [{"measurement": "Schwann cell survival", "setting": "[2]", "result": "significantly improve Schwann cell survival"}, {"measurement": "number of cells (intact nuclei relative to 5.5 mM glucose control)", "setting": "[2]; non-proliferating cells", "result": "significant increase"}, {"measurement": "number of cells (intact nuclei relative to 5.5 mM glucose control)", "setting": "[2]; proliferating cells", "result": "significant increase"}]}, {"compound": "IGF-1: insulin-dependant growth factor (IGF); anti-apoptotic agent added to high glucose media", "values": [{"measurement": "Schwann cell survival", "setting": "[2]", "result": "significantly improve Schwann cell survival"}, {"measurement": "number of cells (intact nuclei relative to 5.5 mM glucose control)", "setting": "[2]; non-proliferating cells", "result": "significant increase"}, {"measurement": "number of cells (intact nuclei relative to 5.5 mM glucose control)", "setting": "[2]; proliferating cells", "result": "significant increase"}]}, {"compound": "cyclosporin A [CsA]", "values": [{"measurement": "CMTMR fluorescent intensity (confocal images)", "setting": "PD2 Schwann cells", "result": "enhanced brightness"}]}]}
